Data on two molecules can be found in US7351811B2, “Gene SCC-112 and diagnostic and therapeutic uses thereof” (Georgetown University, priority 2001, dated 2008).

Common to all, as to type: cell-based, human
The test system of assay [1] is SCC-112 mRNA in LnCap prostate cancer cells. Put plainly: Northern hybridization of SCC-112 mRNA in androgen-treated LNCaP cells. As to the method: FIG. 5. Androgen induces the steady state levels of SCC-112 mRNA in prostate cancer cells. LNcap prostate cancer cells were grown in IMEM with 5% FBS. Logarithmically growing cells were switched to medium containing 5% charcoal stripped serum […] before the experiment. Indicated concentrations of synthetic androgen, R1881 (NEN) were added for 48 h. Total RNA was isolated and subjected to Northern hybridization using SCC-112 as probe.
FIG. 6. […] LnCAP cells were grown in IMEM medium containing 5% fetal bovine serum. Medium was replaced with 5% charcoal-stripped serum containing medium for 24 h, followed by addition of indicated concentration of synthetic androgen (R1881) for 48 h. Total RN A was isolated from various treatments and analyzed by northern blotting and hybridization using a radiolabeled SCC-112 cDNA fragment (1568 bp-6744 bp).
(§1) RNA Isolation and Northern Hybridization: MDA-MB 435 cells were synchronized at different cell cycle stages, and total RNA was isolated with Trizol reagent according to the manufacturer's instructions (Invitrogen Life technologies, Inc.). […] The autoradiographs were scanned and bands were quantified using IMAGEQUANT software (Molecular Dynamics, Sunnyvale, Calif.).

Assay [2] relates to SCC-112 protein in MDA-MB 435 cells. Put plainly: Western blot of SCC-112 protein in nocodazole-arrested (G2/M) MDA-MB 435 cells. The following applies: 100 ng/ml, 16 h, G2/M phase. The protocol:
(§2) (C) Expression of SCC-112 mRNA and protein in G2/M phase. Logarithmically growing cells were arrested at G2/M phase using 100 ng/ml of nocodazole for 16 h (+). SCC-112 mRNA (upper) and protein levels (lower) were quantified as above. The SCC-112. mRNA level was ˜2 fold higher during G2/M phase (+) as compared to untreated cells (−). SCC-112 protein level was elevated during G2/M phase (˜5 fold) in nocodazole treated cells (+) as compared to untreated cells (−).
Western Blot Analysis: The cells were rinsed with ice-cold PBS and scrapped in lysis solution containing Tris (20 mM, pH 8.0), NaCl (150 mM), 1% NP-40 (w/v), 10% glycerol (w/v), 1 mM phenylmethylsulphonyl fluoride (PMSF), aprotinin (20 ug/ml) and leupeptin (20 ug/ml). The cells were lysed for 45 min with vigorous shaking at 4° C. and centrifuged at 12,000×g for 15 min at 4° C. Fifty micrograms of total protein were heat denatured by boiling for 5 min in SDS-PAGE loading buffer. After SDS-PAGE, the proteins were electrophoretically transferred on to PVDF membrane (Millipore). […]
(§3) Cell Synchronization and Flow Cytometry: Logarithmically growing MDA-MB 435 cells were treated with 4 ug/ml aphidicolin, a DNA polymerase-a inhibitor, for 24 h to synchronize cells at G1/S phase. […] The cell cycle distribution profiles were determined using a Fluorescence Activated Cell Sorter (Becton Dickinson).
For orientation: Immunoblotting shows a protein as a band on a membrane.

For assay [3], the system named is SCC-112 mRNA in MDA-MB 435 cells. Put plainly: Northern hybridization of SCC-112 mRNA in nocodazole-arrested (G2/M) MDA-MB 435 cells. The following applies: 100 ng/ml, 16 h, G2/M phase. The protocol: as §2, §1, §3

Values joined by “and” are separate entries in the source; they are usually repeats but may differ in a detail not shown here. Identical values can stand only once.

On to `C[C@]1(O)CC[C@H]2[C@@H]3CCC4=CC(=O)CCC4=C3C=C[C@@]21C` [R1881], for which the “induction of steady state level of SCC-112 transcript (~8.0 kb)” value in assay [1] (LNCaP cells, charcoal-stripped serum, 1 nM to 100 nM, 48 h, vs untreated cells) is 4-7 fold and 4- to 7 fold. In addition, the “effect on SCC-112 mRNA expression (in words)” value in assay [1] (LNCap cells, FIG. 5) is listed as “induces SCC-112 mRNA expression”.
For the molecule `COC(=O)Nc1nc2ccc(C(=O)c3cccs3)cc2[nH]1` [nocodazole], the “SCC-112 protein level vs untreated cells” value in assay [2] is recorded as about 5 fold. Also, the “SCC-112 mRNA level vs untreated cells” value in assay [3] is about 2 fold.
